Assay results reported in ChEMBL document CHEMBL5303573, “Mapping human microbiome drug metabolism by gut bacteria and their genes” (Nature, 2019).

Columns and labels:
[1] = The drug is tested on Collinsella intestinalis strain: DSM13280 for biotransformation. The drug concentrations were measured before and after a 12-h incubation by liquid-chromatography-coupled mass spectrometry (LC–MS); details: 2 µM
[2] = bacteroides thetaiotaomicron, 12 h, 2 µM
Description: The drug is tested on Bacteroides thetaiotaomicron strain: 3731 for biotransformation. The drug concentrations were measured before and after a 12-h incubation by liquid-chromatography-coupled mass spectrometry (LC–MS)

[3] = akkermansia muciniphila, 12 h, 2 µM
Description: The drug is tested on Akkermansia muciniphila strain: ATCC BAA-835 for biotransformation. The drug concentrations were measured before and after a 12-h incubation by liquid-chromatography-coupled mass spectrometry (LC–MS)

[4] = The drug is tested on Bacteroides finegoldii strain: DSM17565 for biotransformation. The drug concentrations were measured before and after a 12-h incubation by liquid-chromatography-coupled mass spectrometry (LC–MS); details: 2 µM
[5] = The drug is tested on Blautia hansenii strain: DSM20583 for biotransformation. The drug concentrations were measured before and after a 12-h incubation by liquid-chromatography-coupled mass spectrometry (LC–MS); details: 2 µM
[6] = The drug is tested on Edwardsiella tarda strain: ATCC23685 for biotransformation. The drug concentrations were measured before and after a 12-h incubation by liquid-chromatography-coupled mass spectrometry (LC–MS); details: 2 µM
[7] = The drug is tested on Odoribacter splanchnicus strain: fecal isolate for biotransformation. The drug concentrations were measured before and after a 12-h incubation by liquid-chromatography-coupled mass spectrometry (LC–MS); details: 2 µM
[8] = The drug is tested on Collinsella aerofaciens strain: ATCC25986 for biotransformation. The drug concentrations were measured before and after a 12-h incubation by liquid-chromatography-coupled mass spectrometry (LC–MS); details: 2 µM
[9] = The drug is tested on Clostridium sporogenes strain: ATCC15579 for biotransformation. The drug concentrations were measured before and after a 12-h incubation by liquid-chromatography-coupled mass spectrometry (LC–MS); details: 2 µM
[10] = The drug is tested on Bacteroides dorei strain: DSM17855 for biotransformation. The drug concentrations were measured before and after a 12-h incubation by liquid-chromatography-coupled mass spectrometry (LC–MS); details: phocaeicola dorei, 2 µM
[11] = bacteroides stercoris, 12 h, 2 µM
Description: The drug is tested on Bacteroides stercoris strain: ATCC43183 for biotransformation. The drug concentrations were measured before and after a 12-h incubation by liquid-chromatography-coupled mass spectrometry (LC–MS)

[12] = The drug is tested on Bacteroides fragilis strain: HMW615 for biotransformation. The drug concentrations were measured before and after a 12-h incubation by liquid-chromatography-coupled mass spectrometry (LC–MS); details: 2 µM
[13] = The drug is tested on Escherichia coli strain: BW25113 for biotransformation. The drug concentrations were measured before and after a 12-h incubation by liquid-chromatography-coupled mass spectrometry (LC–MS); details: 2 µM
[14] = The drug is tested on Clostridium scindens strain: ATCC35704 for biotransformation. The drug concentrations were measured before and after a 12-h incubation by liquid-chromatography-coupled mass spectrometry (LC–MS); details: 2 µM
[15] = The drug is tested on Anaerococcus hydrogenalis strain: DSM7454 for biotransformation. The drug concentrations were measured before and after a 12-h incubation by liquid-chromatography-coupled mass spectrometry (LC–MS); details: 2 µM
[16] = The drug is tested on Clostridium ramosum strain: DSM1402 for biotransformation. The drug concentrations were measured before and after a 12-h incubation by liquid-chromatography-coupled mass spectrometry (LC–MS); details: thomasclavelia ramosa, 2 µM
[17] = The drug is tested on Eubacterium hallii strain: DSM3353 for biotransformation. The drug concentrations were measured before and after a 12-h incubation by liquid-chromatography-coupled mass spectrometry (LC–MS); details: anaerobutyricum hallii, 2 µM
[18] = The drug is tested on Bacteroides uniformis strain: ATCC8492 for biotransformation. The drug concentrations were measured before and after a 12-h incubation by liquid-chromatography-coupled mass spectrometry (LC–MS); details: 2 µM
[19] = The drug is tested on Bacteroides vulgatus strain: ATCC8482 for biotransformation. The drug concentrations were measured before and after a 12-h incubation by liquid-chromatography-coupled mass spectrometry (LC–MS); details: phocaeicola vulgatus, 2 µM

COc1cc2nc(N(C)CCCNC(=O)C3CCCO3)nc(N)c2cc1OC (centres undefined) [ALFUZOSIN]
Bacterial Biotransformation [1]: Compound NOT metabolized
Bacterial Biotransformation [2]: Compound NOT metabolized
Bacterial Biotransformation [3]: Compound NOT metabolized
Bacterial Biotransformation [4]: Compound NOT metabolized
Bacterial Biotransformation [5]: Compound NOT metabolized
Bacterial Biotransformation [6]: Compound NOT metabolized
Bacterial Biotransformation [7]: Compound NOT metabolized
Bacterial Biotransformation [8]: Compound NOT metabolized
Bacterial Biotransformation [9]: Compound NOT metabolized
Bacterial Biotransformation [10]: Compound metabolized
Bacterial Biotransformation [11]: Compound NOT metabolized
Bacterial Biotransformation [12]: Compound NOT metabolized
Bacterial Biotransformation [13]: Compound NOT metabolized
Bacterial Biotransformation [14]: Compound NOT metabolized
Bacterial Biotransformation [15]: Compound NOT metabolized
Bacterial Biotransformation [16]: Compound NOT metabolized
Bacterial Biotransformation [17]: Compound NOT metabolized

CC(O)(CS(=O)(=O)c1ccc(F)cc1)C(=O)Nc1ccc(C#N)c(C(F)(F)F)c1 (centres undefined) [BICALUTAMIDE]
Bacterial Biotransformation [1]: Compound NOT metabolized
Bacterial Biotransformation [2]: Compound NOT metabolized
Bacterial Biotransformation [18]: Compound NOT metabolized
Bacterial Biotransformation [3]: Compound NOT metabolized
Bacterial Biotransformation [4]: Compound NOT metabolized
Bacterial Biotransformation [5]: Compound NOT metabolized
Bacterial Biotransformation [6]: Compound NOT metabolized
Bacterial Biotransformation [7]: Compound metabolized
Bacterial Biotransformation [8]: Compound NOT metabolized
Bacterial Biotransformation [9]: Compound NOT metabolized
Bacterial Biotransformation [11]: Compound NOT metabolized
Bacterial Biotransformation [12]: Compound metabolized
Bacterial Biotransformation [13]: Compound metabolized
Bacterial Biotransformation [14]: Compound NOT metabolized
Bacterial Biotransformation [15]: Compound NOT metabolized
Bacterial Biotransformation [16]: Compound NOT metabolized
Bacterial Biotransformation [17]: Compound NOT metabolized

O=C1CC2(CCCC2)CC(=O)N1CCCCN1CCN(c2ncccn2)CC1 [BUSPIRONE]
Bacterial Biotransformation [1]: Compound NOT metabolized
Bacterial Biotransformation [2]: Compound NOT metabolized
Bacterial Biotransformation [18]: Compound NOT metabolized
Bacterial Biotransformation [3]: Compound NOT metabolized
Bacterial Biotransformation [4]: Compound NOT metabolized
Bacterial Biotransformation [5]: Compound NOT metabolized
Bacterial Biotransformation [6]: Compound NOT metabolized
Bacterial Biotransformation [8]: Compound NOT metabolized
Bacterial Biotransformation [9]: Compound NOT metabolized
Bacterial Biotransformation [10]: Compound NOT metabolized
Bacterial Biotransformation [11]: Compound NOT metabolized
Bacterial Biotransformation [12]: Compound NOT metabolized
Bacterial Biotransformation [14]: Compound NOT metabolized
Bacterial Biotransformation [15]: Compound NOT metabolized
Bacterial Biotransformation [16]: Compound NOT metabolized
Bacterial Biotransformation [17]: Compound NOT metabolized

C#C[C@]1(OC(C)=O)CC[C@H]2[C@@H]3CCC4=C[C@@H](OC(C)=O)CC[C@@H]4[C@H]3CC[C@@]21C [ETHYNODIOL DIACETATE]
Bacterial Biotransformation [1]: Compound NOT metabolized
Bacterial Biotransformation [2]: Compound NOT metabolized
Bacterial Biotransformation [3]: Compound NOT metabolized
Bacterial Biotransformation [4]: Compound NOT metabolized
Bacterial Biotransformation [5]: Compound NOT metabolized
Bacterial Biotransformation [6]: Compound NOT metabolized
Bacterial Biotransformation [7]: Compound NOT metabolized
Bacterial Biotransformation [8]: Compound NOT metabolized
Bacterial Biotransformation [9]: Compound NOT metabolized
Bacterial Biotransformation [10]: Compound NOT metabolized
Bacterial Biotransformation [11]: Compound NOT metabolized
Bacterial Biotransformation [12]: Compound NOT metabolized
Bacterial Biotransformation [14]: Compound NOT metabolized
Bacterial Biotransformation [15]: Compound NOT metabolized
Bacterial Biotransformation [16]: Compound NOT metabolized
Bacterial Biotransformation [19]: Compound NOT metabolized

CCc1cccc2c3c([nH]c12)C(CC)(CC(=O)O)OCC3 (centres undefined) [ETODOLAC]
Bacterial Biotransformation [1]: Compound NOT metabolized
Bacterial Biotransformation [2]: Compound NOT metabolized
Bacterial Biotransformation [18]: Compound metabolized
Bacterial Biotransformation [3]: Compound NOT metabolized
Bacterial Biotransformation [4]: Compound NOT metabolized
Bacterial Biotransformation [5]: Compound NOT metabolized
Bacterial Biotransformation [6]: Compound NOT metabolized
Bacterial Biotransformation [7]: Compound metabolized
Bacterial Biotransformation [8]: Compound NOT metabolized
Bacterial Biotransformation [9]: Compound NOT metabolized
Bacterial Biotransformation [11]: Compound NOT metabolized
Bacterial Biotransformation [12]: Compound metabolized
Bacterial Biotransformation [13]: Compound NOT metabolized
Bacterial Biotransformation [14]: Compound NOT metabolized
Bacterial Biotransformation [15]: Compound NOT metabolized
Bacterial Biotransformation [17]: Compound NOT metabolized

N=C(N)NC(=O)Cc1c(Cl)cccc1Cl [GUANFACINE]
Bacterial Biotransformation [1]: Compound NOT metabolized
Bacterial Biotransformation [18]: Compound NOT metabolized
Bacterial Biotransformation [4]: Compound NOT metabolized
Bacterial Biotransformation [5]: Compound NOT metabolized
Bacterial Biotransformation [6]: Compound NOT metabolized
Bacterial Biotransformation [7]: Compound NOT metabolized
Bacterial Biotransformation [8]: Compound NOT metabolized
Bacterial Biotransformation [9]: Compound NOT metabolized
Bacterial Biotransformation [10]: Compound NOT metabolized
Bacterial Biotransformation [11]: Compound NOT metabolized
Bacterial Biotransformation [12]: Compound NOT metabolized
Bacterial Biotransformation [13]: Compound NOT metabolized
Bacterial Biotransformation [15]: Compound NOT metabolized
Bacterial Biotransformation [16]: Compound NOT metabolized
Bacterial Biotransformation [19]: Compound NOT metabolized
Bacterial Biotransformation [17]: Compound NOT metabolized

COc1cc2nc(N3CCN(C(=O)c4ccco4)CC3)nc(N)c2cc1OC [PRAZOSIN]
Bacterial Biotransformation [1]: Compound NOT metabolized
Bacterial Biotransformation [2]: Compound NOT metabolized
Bacterial Biotransformation [18]: Compound NOT metabolized
Bacterial Biotransformation [3]: Compound NOT metabolized
Bacterial Biotransformation [4]: Compound NOT metabolized
Bacterial Biotransformation [5]: Compound NOT metabolized
Bacterial Biotransformation [6]: Compound NOT metabolized
Bacterial Biotransformation [7]: Compound NOT metabolized
Bacterial Biotransformation [8]: Compound NOT metabolized
Bacterial Biotransformation [11]: Compound NOT metabolized
Bacterial Biotransformation [12]: Compound NOT metabolized
Bacterial Biotransformation [15]: Compound NOT metabolized
Bacterial Biotransformation [16]: Compound NOT metabolized
Bacterial Biotransformation [17]: Compound NOT metabolized

CC(CN1c2ccccc2Sc2ccccc21)N(C)C (centres undefined) [PROMETHAZINE]
Bacterial Biotransformation [1]: Compound NOT metabolized
Bacterial Biotransformation [2]: Compound NOT metabolized
Bacterial Biotransformation [18]: Compound NOT metabolized
Bacterial Biotransformation [3]: Compound NOT metabolized
Bacterial Biotransformation [4]: Compound NOT metabolized
Bacterial Biotransformation [5]: Compound NOT metabolized
Bacterial Biotransformation [6]: Compound NOT metabolized
Bacterial Biotransformation [8]: Compound NOT metabolized
Bacterial Biotransformation [9]: Compound NOT metabolized
Bacterial Biotransformation [11]: Compound NOT metabolized
Bacterial Biotransformation [12]: Compound NOT metabolized
Bacterial Biotransformation [14]: Compound NOT metabolized
Bacterial Biotransformation [15]: Compound NOT metabolized
Bacterial Biotransformation [16]: Compound NOT metabolized
Bacterial Biotransformation [19]: Compound NOT metabolized
Bacterial Biotransformation [17]: Compound NOT metabolized

O=C(O)CCC(=O)O.O=C(O[C@H]1CN2CCC1CC2)N1CCc2ccccc2[C@@H]1c1ccccc1 [SOLIFENACIN SUCCINATE]
Bacterial Biotransformation [1]: Compound NOT metabolized
Bacterial Biotransformation [2]: Compound NOT metabolized
Bacterial Biotransformation [18]: Compound NOT metabolized
Bacterial Biotransformation [3]: Compound NOT metabolized
Bacterial Biotransformation [4]: Compound NOT metabolized
Bacterial Biotransformation [5]: Compound NOT metabolized
Bacterial Biotransformation [6]: Compound NOT metabolized
Bacterial Biotransformation [7]: Compound NOT metabolized
Bacterial Biotransformation [8]: Compound NOT metabolized
Bacterial Biotransformation [9]: Compound NOT metabolized
Bacterial Biotransformation [11]: Compound NOT metabolized
Bacterial Biotransformation [12]: Compound NOT metabolized
Bacterial Biotransformation [14]: Compound NOT metabolized
Bacterial Biotransformation [15]: Compound NOT metabolized
Bacterial Biotransformation [16]: Compound NOT metabolized
Bacterial Biotransformation [17]: Compound NOT metabolized
